From patent US20240368135A1 (VERTEX PHARMACEUTICALS INCORPORATED, priority 2021, published 2024)
Read-outs that look alike come from different tables or passages of the source.

Biological target: human NaV 1.8 (Homo sapiens, UniProt Q9Y5Y9)
Assay: E-VIPR assay detecting and measuring NaV inhibition properties
Format: cell-based
Settings: HEK cells expressing truncated human NaV 1.8
Summary of the method: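 HEK cells expressing truncated, fully active human NaV1.8, with KIR2.1 BacMam co-transduction, were loaded with CC2-DMPE/DiSBAC6(3) voltage-sensing dyes for 20 min at room temperature. Compounds were tested in 11-point 3-fold dilutions (300 nM top final), optionally with 25% human serum, under electrical stimulation with FRET read-out.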

[1] = no human serum, read-out: IC50 in the E-VIPR Assay

human NaV 1.8, sequence (Q9Y5Y9 126-399 limits assumed): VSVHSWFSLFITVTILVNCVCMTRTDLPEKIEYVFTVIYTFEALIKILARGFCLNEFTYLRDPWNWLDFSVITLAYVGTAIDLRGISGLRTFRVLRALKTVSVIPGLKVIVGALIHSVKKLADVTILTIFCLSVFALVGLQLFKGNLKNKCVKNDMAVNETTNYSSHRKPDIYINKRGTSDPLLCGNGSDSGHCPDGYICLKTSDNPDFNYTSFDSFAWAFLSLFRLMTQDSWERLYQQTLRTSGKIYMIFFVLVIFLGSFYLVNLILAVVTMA
human NaV 1.8, sequence (Q9Y5Y9 660-890 limits assumed): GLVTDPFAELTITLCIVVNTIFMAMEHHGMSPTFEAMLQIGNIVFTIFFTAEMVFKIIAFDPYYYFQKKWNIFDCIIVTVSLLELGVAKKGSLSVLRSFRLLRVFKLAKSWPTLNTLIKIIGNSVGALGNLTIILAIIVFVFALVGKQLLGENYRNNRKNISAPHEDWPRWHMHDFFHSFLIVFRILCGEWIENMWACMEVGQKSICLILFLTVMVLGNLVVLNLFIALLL
human NaV 1.8, sequence (Q9Y5Y9 1148-1722 limits assumed): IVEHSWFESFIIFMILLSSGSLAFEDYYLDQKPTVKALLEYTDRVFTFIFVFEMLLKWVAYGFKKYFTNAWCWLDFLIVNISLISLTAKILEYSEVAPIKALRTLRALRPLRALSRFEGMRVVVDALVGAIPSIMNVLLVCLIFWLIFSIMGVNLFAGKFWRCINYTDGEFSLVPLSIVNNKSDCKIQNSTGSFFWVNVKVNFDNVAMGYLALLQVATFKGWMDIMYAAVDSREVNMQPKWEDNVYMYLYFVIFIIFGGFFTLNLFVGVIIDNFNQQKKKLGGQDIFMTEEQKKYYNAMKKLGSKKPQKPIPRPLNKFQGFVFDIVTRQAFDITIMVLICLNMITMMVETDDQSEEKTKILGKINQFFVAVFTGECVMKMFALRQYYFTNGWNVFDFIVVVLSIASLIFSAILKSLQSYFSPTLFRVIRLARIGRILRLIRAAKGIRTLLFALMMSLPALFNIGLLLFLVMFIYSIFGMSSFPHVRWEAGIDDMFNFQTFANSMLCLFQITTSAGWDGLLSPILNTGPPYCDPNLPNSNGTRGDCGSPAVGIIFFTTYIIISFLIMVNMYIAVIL

COc1c([C@H]2[C@H](C(=O)NC3CCOCC3)O[C@@](C)(C(F)(F)F)[C@H]2C)ccc(F)c1F [Compound 269, (2R,3S,4S,5R)-3-(3,4-difluoro-2-methoxyphenyl)-4,5-dimethyl-N-(tetrahydro-2H-pyran-4-yl)-5-(trifluoromethyl)tetrahydrofuran-2-carboxamide]
IC50 [1]: ≥ 1000 nM

Cc1nn(C(F)F)cc1NC(=O)[C@@H]1O[C@@](C)(C(F)(F)F)[C@@H](C)[C@H]1c1ccc(F)c(F)c1CCO [Compound 677, (2R,3S,4S,5R)-3-(3,4-difluoro-2-(2-hydroxyethyl)phenyl)-N-(1-(difluoromethyl)-3-methyl-1H-pyrazol-4-yl)-4,5-dimethyl-5-(trifluoromethyl)tetrahydrofuran-2-carboxamide]
IC50 [1]: 10 to 100 nM

COc1c([C@H]2[C@H](C(=O)Nc3ccnc(N4CC(N)CC4=O)c3)O[C@@](C)(C(F)(F)F)[C@H]2C)ccc(F)c1F (single isomer, unassigned) [Compound 496, rel-(2R*,3S*,4S*,5R*)-N-(2-(4-amino-2-oxopyrrolidin-1-yl)pyridin-4-yl)-3-(3,4-difluoro-2-methoxyphenyl)-4,5-dimethyl-5-(trifluoromethyl)tetrahydrofuran-2-carboxamide]
IC50 [1]: 10 to 100 nM

CCOc1c([C@H]2[C@H](C(=O)Nc3ccnc([S@@](C)(=O)=NC)c3)O[C@@](C)(C(F)(F)F)[C@H]2C)ccc(F)c1F (relative stereo) [Compound 12, rel-(2R,3S,4S,5R)—N-(2-(N,S-dimethylsulfonimidoyl)pyridin-4-yl)-3-(2-ethoxy-3,4-difluorophenyl)-4,5-dimethyl-5-(trifluoromethyl)tetrahydrofuran-2-carboxamide]
IC50 [1]: < 10 nM

COc1c([C@H]2[C@H](C(=O)Nc3ccnc(N4C(=O)CN(C)C[C@H]4CO)c3)O[C@@](C)(C(F)(F)F)[C@H]2C)ccc(F)c1F [Compound 512, (2R,3S,4S,5R)-3-(3,4-difluoro-2-methoxyphenyl)-N-(2-((S)-2-(hydroxymethyl)-4-methyl-6-oxopiperazin-1-yl)pyridin-4-yl)-4,5-dimethyl-5-(trifluoromethyl)tetrahydrofuran-2-carboxamide]
IC50 [1]: < 10 nM

COc1c([C@@H]2C[C@](C)(C(F)(F)F)O[C@H]2C(=O)Nc2ccnc(C(O)CO)c2)ccc(F)c1F (single isomer, unassigned) [Compound 685]
IC50 (in the presence of human serum (compound numbers followed by *), read-out: IC50 in the E-VIPR Assay, performed in the presence of human serum): 10 to 100 nM

COc1c([C@H]2[C@H](C(=O)Nc3ccc(-c4ncco4)nc3)O[C@@](C)(C(F)(F)F)[C@H]2C)ccc(F)c1F [Compound 399, (2R,3S,4S,5R)-3-(3,4-difluoro-2-methoxyphenyl)-4,5-dimethyl-N-(6-(oxazol-2-yl)pyridin-3-yl)-5-(trifluoromethyl)-tetrahydrofuran-2-carboxamide]
IC50 [1]: 10 to 100 nM

COc1c([C@H]2[C@H](C(=O)Nc3cc(C4(N)CCOC4)ncc3F)O[C@@](C)(C(F)(F)F)[C@H]2C)ccc(F)c1F (single isomer, unassigned) [Compound 349, rel-(2R*,3S*,4S*,5R*)-N-(2-(3-aminotetrahydrofuran-3-yl)-5-fluoropyridin-4-yl)-3-(3,4-difluoro-2-methoxyphenyl)-4,5-dimethyl-5-(trifluoromethyl)-tetrahydrofuran-2-carboxamide]
IC50 [1]: < 10 nM

COc1c([C@H]2[C@H](C(=O)Nc3ccnc(C(C)(O)CO)c3)O[C@@](C)(C(F)(F)F)[C@H]2C)ccc(F)c1F (single isomer, unassigned) [Compound 202, rel-(2R*,3S*,4S*,5R*)-3-(3,4-difluoro-2-methoxyphenyl)-N-(2-(1,2-dihydroxypropan-2-yl)pyridin-4-yl)-4,5-dimethyl-5-(trifluoromethyl)tetrahydrofuran-2-carboxamide]
IC50 [1]: < 10 nM

CNS(=O)(=O)c1cc(NC(=O)C2OC(C)(C(F)(F)F)C(C)C2c2ccc(F)c(F)c2OC)ccn1 (single isomer, unassigned) [Compound 456, 3-(3,4-difluoro-2-methoxy-phenyl)-4,5-dimethyl-N-[2-(methylsulfamoyl)-4-pyridyl]-5-(trifluoromethyl)tetrahydrofuran-2-carboxamide]
IC50 [1]: < 10 nM
